The source of these data is paper PMC6437697 (Journal of Medicinal Chemistry, 2019).

Experiment in all cases: KINOMEscan
Assay type in all cases: binding
Common to all, as to conditions: read-out: % control activity remaining

Test [1] addresses T1, TTK (Homo sapiens, UniProt P33981).
T1 construct: purchased Eurofins DiscoverX KINOMEscan
T1 sequence (P33981 1-857): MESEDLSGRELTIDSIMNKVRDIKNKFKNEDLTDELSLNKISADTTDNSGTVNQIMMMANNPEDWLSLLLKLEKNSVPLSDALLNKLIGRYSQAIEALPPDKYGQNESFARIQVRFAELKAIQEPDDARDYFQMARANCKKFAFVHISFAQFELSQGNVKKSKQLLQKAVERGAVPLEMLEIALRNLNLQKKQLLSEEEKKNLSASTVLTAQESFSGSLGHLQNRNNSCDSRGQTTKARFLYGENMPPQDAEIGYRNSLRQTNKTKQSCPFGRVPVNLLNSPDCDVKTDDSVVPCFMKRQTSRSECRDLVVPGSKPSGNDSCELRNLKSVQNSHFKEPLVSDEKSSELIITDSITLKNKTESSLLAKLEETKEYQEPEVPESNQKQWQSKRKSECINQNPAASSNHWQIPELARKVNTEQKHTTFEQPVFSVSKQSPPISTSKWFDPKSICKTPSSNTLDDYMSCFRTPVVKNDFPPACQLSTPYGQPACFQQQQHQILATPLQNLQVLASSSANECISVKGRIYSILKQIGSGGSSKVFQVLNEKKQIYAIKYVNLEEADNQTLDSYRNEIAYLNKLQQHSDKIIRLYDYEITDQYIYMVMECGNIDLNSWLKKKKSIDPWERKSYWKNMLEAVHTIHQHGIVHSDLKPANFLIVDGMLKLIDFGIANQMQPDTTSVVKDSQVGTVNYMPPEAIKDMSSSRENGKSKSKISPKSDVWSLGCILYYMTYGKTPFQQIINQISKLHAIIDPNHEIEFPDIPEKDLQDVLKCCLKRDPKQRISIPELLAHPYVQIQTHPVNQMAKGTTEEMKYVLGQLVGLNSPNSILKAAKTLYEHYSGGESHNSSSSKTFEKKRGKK

Test [2] concerns the target T2, ICK (Homo sapiens, UniProt Q9UPZ9).
T2 construct: purchased Eurofins DiscoverX KINOMEscan
T2 sequence (Q9UPZ9 1-632): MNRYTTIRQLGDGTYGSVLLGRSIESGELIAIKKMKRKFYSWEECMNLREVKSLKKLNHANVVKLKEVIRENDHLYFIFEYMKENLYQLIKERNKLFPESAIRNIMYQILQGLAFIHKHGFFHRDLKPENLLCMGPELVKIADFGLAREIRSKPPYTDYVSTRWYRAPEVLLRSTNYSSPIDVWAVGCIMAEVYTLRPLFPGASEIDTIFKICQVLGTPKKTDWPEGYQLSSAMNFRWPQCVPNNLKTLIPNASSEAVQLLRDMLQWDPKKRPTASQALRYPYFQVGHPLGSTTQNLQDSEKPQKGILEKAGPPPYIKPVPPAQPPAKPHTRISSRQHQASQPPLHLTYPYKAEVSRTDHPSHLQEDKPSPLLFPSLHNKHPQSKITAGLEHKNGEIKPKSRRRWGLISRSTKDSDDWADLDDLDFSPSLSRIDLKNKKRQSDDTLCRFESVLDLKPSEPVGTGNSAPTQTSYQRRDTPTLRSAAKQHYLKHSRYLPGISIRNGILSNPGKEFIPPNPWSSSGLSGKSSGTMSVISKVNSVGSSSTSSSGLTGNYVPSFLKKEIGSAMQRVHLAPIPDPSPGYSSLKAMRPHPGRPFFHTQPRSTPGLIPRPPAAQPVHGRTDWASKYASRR

For test [3], the target named is T3, CASK (Homo sapiens, UniProt O14936).
T3 construct: purchased Eurofins DiscoverX KINOMEscan
T3 sequence (O14936 1-926): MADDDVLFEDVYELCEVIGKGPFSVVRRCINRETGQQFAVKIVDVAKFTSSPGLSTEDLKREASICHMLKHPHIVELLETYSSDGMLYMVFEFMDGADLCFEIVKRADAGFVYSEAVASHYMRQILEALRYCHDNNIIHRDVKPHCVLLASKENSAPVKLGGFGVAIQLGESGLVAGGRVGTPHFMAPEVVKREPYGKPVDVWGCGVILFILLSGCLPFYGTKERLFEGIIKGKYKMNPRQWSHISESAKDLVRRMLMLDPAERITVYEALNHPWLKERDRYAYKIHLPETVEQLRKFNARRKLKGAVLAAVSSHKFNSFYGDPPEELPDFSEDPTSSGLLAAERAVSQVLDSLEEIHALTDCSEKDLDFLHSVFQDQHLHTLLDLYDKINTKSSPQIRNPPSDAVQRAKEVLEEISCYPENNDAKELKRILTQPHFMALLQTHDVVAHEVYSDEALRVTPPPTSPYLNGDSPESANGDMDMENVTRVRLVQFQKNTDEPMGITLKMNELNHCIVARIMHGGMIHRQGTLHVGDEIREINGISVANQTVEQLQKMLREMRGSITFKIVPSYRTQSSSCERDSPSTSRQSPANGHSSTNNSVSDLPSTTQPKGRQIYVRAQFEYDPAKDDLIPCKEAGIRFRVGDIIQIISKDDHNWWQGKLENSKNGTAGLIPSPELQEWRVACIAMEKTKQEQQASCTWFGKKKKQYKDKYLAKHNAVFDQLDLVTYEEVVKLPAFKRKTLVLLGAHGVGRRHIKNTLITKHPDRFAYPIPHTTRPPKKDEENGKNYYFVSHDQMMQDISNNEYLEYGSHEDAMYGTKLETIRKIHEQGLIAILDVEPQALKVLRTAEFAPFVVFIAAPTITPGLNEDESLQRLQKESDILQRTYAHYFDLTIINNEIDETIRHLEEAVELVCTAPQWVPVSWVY

Test [4] addresses T4, INSRR (Homo sapiens, UniProt P14616).
T4 construct: purchased Eurofins DiscoverX KINOMEscan

The target of test [5] is T5, NEK7 (Homo sapiens, UniProt Q8TDX7).
T5 construct: purchased Eurofins DiscoverX KINOMEscan
T5 sequence (Q8TDX7 whole entry): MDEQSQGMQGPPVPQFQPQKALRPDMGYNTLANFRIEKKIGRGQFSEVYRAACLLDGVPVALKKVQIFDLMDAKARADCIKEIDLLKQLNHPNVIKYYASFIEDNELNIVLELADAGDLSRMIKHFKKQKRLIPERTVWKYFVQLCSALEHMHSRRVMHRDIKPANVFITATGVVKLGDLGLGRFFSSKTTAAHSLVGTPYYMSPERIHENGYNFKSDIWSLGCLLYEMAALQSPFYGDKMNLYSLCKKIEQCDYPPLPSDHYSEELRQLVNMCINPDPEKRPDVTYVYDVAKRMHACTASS

T4 sequence (P14616 27-1297): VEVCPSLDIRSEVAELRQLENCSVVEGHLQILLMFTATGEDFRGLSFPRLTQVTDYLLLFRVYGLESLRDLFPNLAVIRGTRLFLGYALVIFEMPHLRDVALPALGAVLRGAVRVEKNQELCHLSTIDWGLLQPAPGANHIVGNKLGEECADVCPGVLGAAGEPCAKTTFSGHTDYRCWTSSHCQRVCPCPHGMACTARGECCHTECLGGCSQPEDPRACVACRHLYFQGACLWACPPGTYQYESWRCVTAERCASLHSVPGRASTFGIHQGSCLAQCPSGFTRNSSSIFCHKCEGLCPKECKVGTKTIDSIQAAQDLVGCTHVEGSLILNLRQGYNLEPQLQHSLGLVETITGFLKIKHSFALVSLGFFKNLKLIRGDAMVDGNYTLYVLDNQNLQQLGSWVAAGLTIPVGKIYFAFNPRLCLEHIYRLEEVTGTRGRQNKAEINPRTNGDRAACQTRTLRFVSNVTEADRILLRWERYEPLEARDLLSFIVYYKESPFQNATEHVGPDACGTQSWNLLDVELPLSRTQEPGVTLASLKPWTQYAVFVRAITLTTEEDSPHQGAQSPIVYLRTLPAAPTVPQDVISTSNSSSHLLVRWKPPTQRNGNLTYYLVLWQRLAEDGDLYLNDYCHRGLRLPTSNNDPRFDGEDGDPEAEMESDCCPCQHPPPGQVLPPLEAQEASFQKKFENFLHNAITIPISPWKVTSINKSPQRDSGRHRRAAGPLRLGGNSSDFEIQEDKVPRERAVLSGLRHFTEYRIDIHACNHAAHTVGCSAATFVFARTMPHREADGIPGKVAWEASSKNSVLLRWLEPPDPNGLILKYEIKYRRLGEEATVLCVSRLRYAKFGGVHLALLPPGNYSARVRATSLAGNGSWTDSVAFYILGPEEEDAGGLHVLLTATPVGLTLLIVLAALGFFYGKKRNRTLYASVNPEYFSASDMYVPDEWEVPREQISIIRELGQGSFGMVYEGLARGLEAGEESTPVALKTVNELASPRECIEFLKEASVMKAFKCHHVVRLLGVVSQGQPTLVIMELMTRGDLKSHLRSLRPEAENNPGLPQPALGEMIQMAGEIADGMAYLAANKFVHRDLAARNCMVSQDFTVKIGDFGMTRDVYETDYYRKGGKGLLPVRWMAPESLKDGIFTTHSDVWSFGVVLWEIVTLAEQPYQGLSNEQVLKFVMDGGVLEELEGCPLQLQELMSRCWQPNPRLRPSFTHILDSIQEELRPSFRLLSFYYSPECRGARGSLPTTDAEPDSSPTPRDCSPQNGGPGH

On to `Clc1cc(NCC2CC2)c2ncc(-c3ccc4[nH]ncc4c3)n2n1` [compound 2, 6-Chloro-N-(cyclopropylmethyl)-3-(1H-indazol-5-yl)imidazo[1,2-b]pyridazin-8-amine], for which the remaining binding at 1 µM in test [1] amounted to 77%; in test [2], 80%; in test [3] it was 87%; in test [4], 96%; in test [5], 97%.
Turning to `O=C(CN1CCOCC1)N[C@H]1CC[C@H](Nc2cc(Cl)nn3c(-c4ccc5[nH]ncc5c4)cnc23)CC1` [compound 26], the remaining binding at 1 µM in test [1] came out at 54%; in test [2] it was 74%; in test [3], 59%; in test [4], 85%; in test [5], 99%.
In the case of `CN1CCC(CNc2cc(Cl)nn3c(-c4cc5nc(Nc6ccccc6)[nH]c5cc4F)cnc23)CC1` [compound 31, 6-Chloro-3-(6-fluoro-2-(phenylamino)-1H-benzo[d]imidazol-5-yl)-N-((1-methylpiperidin-4-yl)methyl)imidazo[1,2-b]pyridazin-8-amine], the remaining binding at 1 µM in test [1] came to 90%; in test [2], 97%; in test [3], 100%; in test [4] it was 100%; in test [5] it was 94%.
